System: MES-induced seizure
Experiment: Maximal Electroshock Test (MES), anticonvulsant activity
Assay type: in vivo, CF-1 male albino mice
Protocol: Anticonvulsant activity was determined using the MES test, run according to the procedure described in detail below. Swinyard E A, Woodhead J H, White H S, Franklin M R. Experimental selection, quantification, and evaluation of anticonvulsants. In Levy R H, et al., eds. Antiepileptic Drugs. 3rd ed. New York: Raven Press, 1989:85-102 CF-1 male albino mice (25-35 g) were randomly selected into control and test groups, with the animals dosed with vehicle or test compound, at varying time-points and concentrations, respectively. On the study date, the mice were dosed by intraperitoneal (i.p.) injection with vehicle (30% Solutol) or test compound (50-250 mg/kg). Seizures were induced by trans-corneal electric shock using a 60-Hz alternating current, 50 mA, delivered for 0.2 sec. The mice in the test groups were subjected to electrical stimulus at time intervals between 15 minutes and 4 hours following administration of test compound. […] The test was complete when the entire course of the convulsion has been observed (typically, less than 1 minute after electrical stimulation). […] The ED50 value of the test compounds was the calculated dose required to block the hind limb tonic-extensor component of the MES-induced seizure in 50% of the rodents tested. […] Representative compounds of the present invention were tested according to the procedure described above, with results as listed in Table 1 below. Results are listed as (number of mice with full body tonic extension prevented)/(total number of mice tested) (@ a given time). ED50 values were determined at the time of peak effect (1 hr, Table 1).

[1] = 100 mg/kg i.p., 1.0 Hrs after dosing
[2] = 100 mg/kg i.p., 2 Hrs after dosing
[3] = 200 mg/kg i.p., 0.25 Hrs after dosing
[4] = 200 mg/kg i.p., 0.50 Hrs after dosing
[5] = 200 mg/kg i.p., 1.0 Hrs after dosing
[6] = 200 mg/kg i.p., 2 Hrs after dosing
[7] = 200 mg/kg i.p., 4 Hrs after dosing

SMILES	MES Activity: (number of mice with full body tonic extension prevented)/(total number of mice tested) [1]	MES Activity: (number of mice with full body tonic extension prevented)/(total number of mice tested) [2]	MES Activity: (number of mice with full body tonic extension prevented)/(total number of mice tested) [3]	MES Activity: (number of mice with full body tonic extension prevented)/(total number of mice tested) [4]	MES Activity: (number of mice with full body tonic extension prevented)/(total number of mice tested) [5]	MES Activity: (number of mice with full body tonic extension prevented)/(total number of mice tested) [6]	MES Activity: (number of mice with full body tonic extension prevented)/(total number of mice tested) [7]	ED50 (Mus musculus, ip, 1 h, mice, i.p., at time of peak effect (1 hr), probit analysis, read-out: ED50 (dose required to block the hind limb tonic-extensor component of the MES-induced seizure in 50% of the rodents)) [mg/kg]
NS(=O)(=O)NCc1c[s+]([O-])c2ccccc12 (single isomer, unassigned; (-)) [(−)-enantiomer, N-[(1-oxidobenzo[b]thien-3-yl)methyl]-sulfamide]	2/4	1/4	1/4	2/5	5/5	5/5	1/5	
NS(=O)(=O)NCc1c[s+]([O-])c2ccccc12 (single isomer, unassigned; (+)) [(+)-enantiomer, N-[(1-oxidobenzo[b]thien-3-yl)methyl]-sulfamide]	1/4	0/4	0/3	4/5	5/5	5/5	1/5	127

Source: patent publication US7897636B2, “Sulfamide derivative useful for the treatment of epilepsy” (Janssen Pharmaceutica NV, priority 2007, dated 2011)
